Assay results: patent US20230135366A1, “LIPOIC ACID CHOLINE ESTER COMPOSITIONS AND METHODS TO STABILIZE INTO […] RELEVANT DRUG PRODUCTS” (NOVARTIS AG, priority 2016, published 2023)
Like-named read-outs stand apart in the source and are kept apart here.

Experiments:
[1] = Osmolality of formulation; type: physicochemical
Experimental: • The requisite osmolality range for drug-containing formulations and placebo is 280-320 mOsm/kg. Preferably, all LACE formulations need to he within 290-310 mOsm/Kg. • Since LACE has contributions to osmolality, each formulation will have varying concentrations of glycerol to achieve the requisite osmolality.
The target for Total Osmolality was 300 mOsm/kg.
Accordingly, a full series of solutions was prepared with slightly altered target osmolalities for the solutions without LACE, and therefore different target glycerol contents. All solutions were prepared using the same Alanine/Benzalkonium Chloride, pH 4.5 stock solution used in the placebos, so that the final composition was consistently: • 0.5% (5 mg/g) Alanine • 0.005% (0.05 mg/g) Benzalkonium Chloride • Small amounts of 1N Sodium Hydroxide, 1N Hydrochloric Acid, to adjust pH to 4.5 • Water for Inhalation (added to final weight of 5.0 g per formulation)

ocular surface = assay: Ocular irritation in rabbit irritation model (rabbit Draize model); type: in vivo
Excerpt: Another issue that confounded the pharmaceutical development of LACE ophthalmic solutions was incidences of ocular surface irritation observed in-vivo in a rabbit irritation model. The invention details unexpected parameters that contributed to, or caused ocular irritation and processes to eliminate or minimize these parameters. These parameters were not related to the formulation composition or properties of the drug substance, factors that normally correlated or attributed to ocular irritation.
FIGS. 12A and 12B generally provide a snapshot of the correlation of irritation to the micellar LACE species over a number of batches compounded.
Example 16 established the correlation between concentration of associative species and ocular irritation in an in-vivo model (rabbit Draize model).

[2] = General properties of LACE (solubility, solution pH, Log P, hygroscopicity); type: physicochemical; details: for solubility: read-out: Solubility Profile
[3] = RP-HPLC (UV / ELSD) measurement of LACE micellar / associative (aggregated) species; type: physicochemical; details: for equilibrium concentration of aggregates (% of the API peak): aqueous solution
Excerpt: While searching for causes for irritation, it was discovered that LACE, when dissolved in water, forms micelles and micellar aggregates, common to compounds that are amphiphilic in nature. As definition, examples of micelle-forming compounds are phosphatidyl choline, pegylated phosphatidyl choline, PEG-stearate, […], etc. While the micelle-formation phenomenon of LACE is not unexpected due to the amphiphilic nature of the molecule, the formation of these aggregates at lower temperatures were surprising. The presence of the aggregates was measured by a RP-HPLC method developed in-house. The measurement could be performed both with HPLC-UV and HPLC-ELSD. […] The equilibrium concentration of LACE Iodide aggregates are 39-41% of the API peak. In comparison, the equilibrium concentration of LACE chloride is <1%, after dispersion with agitated stirring.
• Two 200-g batches of 1.5% LACE Chloride were prepared at 25° C. after vehicle was deoxygenated with bubbled nitrogen. […] At time-points of 1 h, 3 h, 4 h, 6 h, 8 h, 9 h, and 24 h, about 5-15 mL was removed by syringe and sterile-filtered into eye-dropper bottles (5 mL/bottle), without nitrogen overlay in the bottle (apparatus was in use for the bulk batches). • Samples of all time-points were diluted to 10 mg/g, and then injected for RP-HPLC analysis with ELK.) detection within 30 minutes of removal from the bulk solution. • After the 24-hour time-point, bulk solutions were sterile-filtered, and each divided into two ˜50 mL portions—one held at 5° C., the other 50-mL portion held at 25° C. All portions were overlaid with nitrogen blown into the vessel. • At the end of the additional 24-hour hold time, each portion was filled into eye-dropper bottles with a nitrogen overlay in the bottle.
The final diluted LACE concentration was targeted to the level appropriate for RP-HPLC analysis (12.8 mg/mL of LACE-Iodide).
The approach was to generate complete inclusion complexes of LACE-Iodide in HP-B-CD, thus preventing any opportunity of aggregation of LACE molecules. Several batches of formulation were prepared using varying molar ratios of LACE-Iodide to HP-B-CD and the growth of aggregative species assessed over time. The formulations were stored at 5° C. The formation of associative species as measured by reverse phase HPLC was then reported as the area percent relative to the main LACE peak area.

bovine calf cornea [4] = assay: Corneal permeability, Franz Cell Diffusion apparatus; details: Study 1
Experimental: (§1) LACE is delivered from these formulations as one of two salts: LACE-chloride and LACE-iodide. […] Therefore, both LACE and lipoic acid concentrations were assayed at each time point to evaluate permeability.
(§2) • a. 6 bovine eyeballs are dissected in a sterile laminar flow hood. • b. The corneas are extracted from the eyeball, briefly rinsed in sterile double-distilled water, and submerged in 3 mL of glutathione buffer (0.1% glutathione, oxidized, 6 mM sodium phosphate, pH 7, sterile-filtered) in a sterile culture dish. • c. The corneas are kept at 5° C. and used within 24 hours of excision. • d. Six 5 mL Franz vertical diffusion cells are cleaned with distilled water and isopropanol and air dried in a laminar flow cabinet prior to set up. • e. A small stir bar is placed within the receptor fluid chamber. The bottle of receptor fluid (5 mM phosphate-buffered saline with 0.1% Tween 20, pH 7.4, sterile-filtered) is tared on an analytical balance, and 4.5 mL of it is added to each Franz cell. The exact weight of the starting receptor fluid is recorded. • f. The cornea is gently rinsed of glutathione buffer with receptor fluid, and is placed on the donor pedestal. The donor chamber is placed on top of the cornea, and the entire assembly is fastened to the pedestal with a metal clip. At this point, 0.5 mL of additional receptor fluid is added via the sampling arm, until the fluid level reaches the point marked on the arm with a black line. The weight of this addition is also recorded. • g. The Franz diffusion apparatus is connected to a heater unit, and the temperature is raised to 37° C. When that temperature is reached, the formulation (“the donor solution”) is added to the donor chamber. • h. 0.2 mL of donor solution is added. Both the donor chamber and sampling arm are covered by paraffin when not in use to prevent evaporation. • i. Sampling is done via Drummond pipet, and only through the sampling arm. 200-300 μL of receptor fluid is sampled from each cell at each time point. • j. The sample is added to an amber glass HPLC vial with 0.3 mL glass insert, and is weighed. […]

[5] = HPLC related compounds / related substances (oxidized LACE, lipoic acid, total impurities) of LACE solutions, mixing and stability studies; type: physicochemical
Experimental: Each of the solutions was also measured for degradants of lipoic acid choline ester. As mentioned earlier, the degradation mechanism of LACE is oxidative and hydrolytic, resulting in oxidized and hydrolyzed species.
• a) HPLC Method Setup: The HPLC assay consisted of a 50 minute mobile phase gradient made up of (A) 0.05M sodium phosphate monobasic, 0.005M 1-heptane sulfonic acid sodium salt, 0.2% v/v triethylamiue, adjusted to pH 4.5 with phosphoric acid; and (B) acetonitrile. The analytical column used is a YMC Pack ODS AO (4.6×250 mm, 5 μm, 120 Å), P/N AQ125052546WT; the analytical detection wavelength is 225 nm.
The eve dropper bottles with the two formulations were stored at 25° C. in a temperature-controlled incubator, and 0.5 mL (about 10 drops) sampled at each time point for analysis of related substances (by HPLC). The nitrogen blanket was not replenished, so some air got into the bottle with each sampling. This experiment was an early investigation of stability at room temperature (25±0.1° C.) with no protection from oxygen with continued sampling.
For the stability studies on both the clinical LACE-Chloride and the prototype LACE-Iodide formulation with a 1:1 molar ratio of HP-B-CD to LACE, the formulations were filtered, filled into LDPE eye dropper bottles, blanketed with nitrogen, and then placed inside barrier foil pouches with an oxygen scavenger. It is likely that some oxygen was still present in the pouch to start. After the first time point following T=0, however, the rise in oxidized LACE species stops, even at elevated temperatures, likely due to depletion of the remaining oxygen (FIG. 20).

bovine calf cornea [6] = tested on: bovine calf cornea
Experimental: as §1, §2

[7] = Appearance of ophthalmic solution in stability studies; type: physicochemical; details: API (Lot# 011510)
Experimental: in an effort to stabilize the drug formulation further, systematic stability studies (5° C., 25° C. and 40° C.) on mid-scale R&D batches were undertaken with bottled EV06 Ophthalmic Solution in the presence and absence of oxygen scavenging packets contained in zip-lock, vapor impermeable foil pouches.

[8] = API (drug substance), lot AC-LACE-05-39 stored at 5 °C
[9] = Table 16-3, API (drug substance)
[10] = Table 17-1, API (drug substance)
[11] = Table 17-2, API (drug substance)
[12] = Table 17-3, API (drug substance)
[13] = Table 18-1, API (drug substance)
[14] = Table 18-2, API (drug substance)
[15] = API (Lot# 011510), RS analyzed Mar. 22, 2016

SMILES: C[N+](C)(C)CCOC(=O)CCCC[C@@H]1CCSS1 [LACE, lipoic acid choline ester]
- additional osmolality for every 1% LACE, average ([1]; earlier formulations): 48 mOsm/kg
- additional osmolality for every 1% LACE ([1]; earlier formulations, range): 44-55 mOsm/kg
- effect of LACE on osmolality for every 1% ([1]; from Table 6 solutions): 57-60 mOsm/kg
- ocular irritation (ocular surface; compounded at room temperature): comfortable and non-irritating

SMILES: C[N+](C)(C)CCOC(=O)CCCC[C@@H]1CCSS1 [LACE Chloride, Lipoic Acid Choline Ester Chloride]
- Hygroscopicity [2]: Highly hygroscopic
- Solution pH [2]: 7-7.5
- logP [2]: < 2
- solubility ([2]; in water): > 50 mg/mL
- solubility ([2]; organic solvent or mixture, in acetonitrile): > 4 mg/mL
- equilibrium concentration of aggregates (% of the API peak) ([3]; after dispersion with agitated stirring): < 1%
- percent micellar species (% of the main LACE API Peak) ([3]; formulated under argon and refrigerated conditions): 8-10%
- ocular irritation (ocular surface; solution formulated at refrigerated temperatures): extremely irritating
- permeated species (bovine calf cornea [4]): somewhat more intact LACE permeated

SMILES: C[N+](C)(C)CCOC(=O)CCCC[C@@H]1CCSS1.[Cl-] [API]
- Related Substances RRT 1.00 API ([5]; API (drug substance)): 99.13 Area %
- Related Substances RRT 1.65 ([5]; API (drug substance)): 0.34 Area %
- Related Substances RRT 4.05 Lipoic Acid ([5]; API (drug substance)): 0.13 Area %
- Related Substances, RRT 0.49 ([5]; API (drug substance)): 0.19 Area %
- Related Substances, RRT 0.61 Oxidized Lace ([5]; API (drug substance)): 0.04 Area %
- Related Substances, RRT 0.68 Oxidized Lace ([5]; API (drug substance)): 0.04 Area %
- Related Substances, RRT 1.36 ([5]; API (drug substance)): 0.34 Area %
- Related Substances, RRT 1.52 ([5]; API (drug substance)): 0.34 Area %
- Related Substances, RRT 1.73 ([5]; API (drug substance)): 0.17 Area %
- Related Substances, RRT 1.86 ([5]; API (drug substance)): 0.17 Area %
- Related Substances, RRT 4.11 Lipoic Acid ([5]; API (drug substance)): 0.13 Area %
- Total Impurities ([5]; API (drug substance)): 0.87 Area %
- Related Substances RRT 0.51 ([5]; API (drug substance), lot AC-LACE-05-21 stored at 5 °C): 0.19 Area %
- Related Substances RRT 0.51 [5, 8]: 0.10 Area %
- Related Substances RRT 2.28 [5, 8]: 0.17 Area %
- Related Substances RRT 2.28 ([5]; API (drug substance), lot AC-LACE-05-39 stored at 25 °C): 0.13 Area %
- Related Substances RRT 0.51 [5, 9]: 0.10 Area %
- Related Substances RRT 0.68 [5, 9]: 0.04 Area %
- Related Substances RRT 1.00 [5, 9]: 99.13 Area %
- Related Substances RRT 1.65 [5, 9]: 0.34 Area %
- Related Substances RRT 2.28 [5, 9]: 0.17 Area %
- Related Substances RRT 4.05 [5, 9]: 0.13 Area %
- Total Impurities [5, 9]: 0.87 Area %
- Related Substances RRT 0.50 [5, 10]: 0.20 Area %
- Related Substances RRT 0.59 [5, 10]: 0.04 Area %
- Related Substances RRT 1.27 [5, 10]: 0.34 Area %
- Related Substances RRT 1.42 [5, 10]: 0.17 Area %
- Related Substances RRT 3.00 [5, 10]: 99.13 Area %
- Related Substances RRT 3.07 [5, 10]: 0.13 Area %
- Total Impurities [5, 10]: 0.87 Area %
- Related Substances RRT 0.50 [5, 11]: 0.20 Area %
- Related Substances RRT 0.59 [5, 11]: 0.04 Area %
- Related Substances RRT 1.00 [5, 11]: 99.13 Area %
- Related Substances RRT 1.27 [5, 11]: 0.34 Area %
- Related Substances RRT 1.42 [5, 11]: 0.17 Area %
- Related Substances, Lipoic Acid (RRT not given) [5, 11]: 0.13 Area %
- Total Impurities [5, 11]: 0.87 Area %
- Related Substances RRT 0.50 [5, 12]: 0.20 Area %
- Related Substances RRT 0.59 [5, 12]: 0.04 Area %
- Related Substances RRT 1.00 [5, 12]: 99.13 Area %
- Related Substances RRT 1.27 [5, 12]: 0.34 Area %
- Related Substances RRT 1.42 [5, 12]: 0.17 Area %
- Related Substances RRT 3.07 Lipoic Acid [5, 12]: 0.13 Area %
- Total Impurities [5, 12]: 0.87 Area %
- Related Substances RRT 0.51 [5, 13]: 0.10 Area %
- Related Substances RRT 0.68 [5, 13]: 0.04 Area %
- Related Substances RRT 1.00 API [5, 13]: 99.13 Area %
- Related Substances RRT 1.65 [5, 13]: 0.34 Area %
- Related Substances RRT 2.28 [5, 13]: 0.17 Area %
- Related Substances RRT 4.05 Lipoic Acid [5, 13]: 0.13 Area %
- Total Impurities [5, 13]: 0.87 Area %
- Related Substances RRT 0.51 [5, 14]: 0.10 Area %
- Related Substances RRT 0.68 [5, 14]: 0.04 Area %
- Related Substances RRT 1.00 API [5, 14]: 99.13 Area %
- Related Substances RRT 1.65 [5, 14]: 0.34 Area %
- Related Substances RRT 2.28 [5, 14]: 0.17 Area %
- Related Substances RRT 4.05 Lipoic Acid [5, 14]: 0.13 Area %
- Total Impurities [5, 14]: 0.87 Area %

SMILES: C[N+](C)(C)CCOC(=O)CCCCC1CCSS1.[I-] (stereo not shown) [LACE Iodide]
- equilibrium concentration of aggregates (% of the API peak) [3]: 39-41%
- aggregated species (% of the API) ([3]; at the end of 8 hours of mixing): ≤ 39%
- % Associative Species at T0 ([3]; direct dissolution: Buffer with 0.6% NaCl, 1.5% PG): 40.9%
- % Associative Species at T0 ([3]; direct dissolution: Buffer with 1.8% NaCl): 34.7%
- % Associative Species at T0 ([3]; direct dissolution: Ethanol (78% final), then Buffer (22%)): 0.0%
- % Associative Species at T0 ([3]; direct dissolution: Propylene Glycol (10%), then Buffer (90%)): 11.7%
- overall percent of drug permeated (bovine calf cornea [6]): 3-7%
- permeated species (bovine calf cornea [6]): almost entirely lipoic acid

SMILES: C[N+](C)(C)CCOC(=O)CCCC[C@@H]1CCSS1.[I-] [API (Lot# 011510)]
- API Related Substances, Oxid. LACE RRT 0.48 [5, 15]: 0.08%
- API Related Substances, Oxid. LACE RRT 0.52 [5, 15]: 0.04%
- API Related Substances, RRT 1.74 [5, 15]: 0.24%
- API Related Substances, RRT 2.00 [5, 15]: 0.20%
- API Related Substances, Total Imp. [5, 15]: 0.56%
- Appearance [7]: Complies
